Experimental data reported in BigSolDB 2.1.

Nc1nccnc1Cl
solubility (mole fraction)
Settings | 278.15 K | 283.15 K | 288.15 K | 293.15 K | 298.15 K | 303.15 K | 308.15 K | 313.15 K | 318.15 K | 323.15 K
in DMF | 0.00918 | 0.0122 | 0.0155 | 0.02 | 0.0247 | 0.0295 | 0.0346 | 0.04 | 0.0456 | 0.0515
in ethylene glycol | 0.000725 | 0.000935 | 0.00117 | 0.00147 | 0.0018 | 0.00217 | 0.00257 | 0.00301 | 0.00348 | 0.00394
in isopropanol | 0.002 | 0.00254 | 0.00319 | 0.004 | 0.00488 | 0.00591 | 0.00697 | 0.008 | 0.00929 | 0.0109
in methanol | 0.00283 | 0.00372 | 0.00479 | 0.00598 | 0.00723 | 0.00847 | 0.01 | 0.0116 | 0.0133 | 0.0153
in water | 2.78e-05 | 3.74e-05 | 4.95e-05 | 6.21e-05 | 7.6e-05 | 9.05e-05 | 0.000106 | 0.000123 | 0.00014 | 0.000158

Nc1ncc(Br)nc1Br
solubility (mole fraction)
Settings | 278.15 K | 283.15 K | 288.15 K | 293.15 K | 298.15 K | 303.15 K | 308.15 K | 313.15 K | 318.15 K | 323.15 K
in ethanol | 0.000754 | 0.000938 | 0.00115 | 0.00136 | 0.00158 | 0.0018 | 0.00202 | 0.00231 | 0.00261 | 0.00291
in ethylene glycol | 0.000127 | 0.000155 | 0.000185 | 0.000219 | 0.000256 | 0.000291 | 0.00033 | 0.000373 | 0.00042 | 0.000469
in isopropanol | 0.000516 | 0.000615 | 0.00072 | 0.00085 | 0.000986 | 0.00115 | 0.00131 | 0.00149 | 0.00169 | 0.00192
in propylene glycol | 0.000258 | 0.000304 | 0.00037 | 0.000432 | 0.000506 | 0.000577 | 0.000651 | 0.000734 | 0.000827 | 0.000928
in water | 2.55e-06 | 3.14e-06 | 3.73e-06 | 4.44e-06 | 5.18e-06 | 5.89e-06 | 6.76e-06 | 7.68e-06 | 8.61e-06 | 9.63e-06
